Measurements from publication PMC9851200, “Multiparameter phenotypic screening for endogenous TFEB and TFE3 translocation identifies novel chemical series modulating lysosome function” (Autophagy, 2022).

What was measured:
[1] = biological target: CSNK1E (Homo sapiens, UniProt P49674); experiment: KINOMEscan CSNK1E; assay type: binding; conditions: NEW KINOMEscan
[2] = biological target: T1, PRKD3 (Homo sapiens, UniProt O94806); experiment: KINOMEscan PRKD3; assay type: binding; conditions: kinase PRKD3; NEW KINOMEscan
T1 sequence (O94806 1-890): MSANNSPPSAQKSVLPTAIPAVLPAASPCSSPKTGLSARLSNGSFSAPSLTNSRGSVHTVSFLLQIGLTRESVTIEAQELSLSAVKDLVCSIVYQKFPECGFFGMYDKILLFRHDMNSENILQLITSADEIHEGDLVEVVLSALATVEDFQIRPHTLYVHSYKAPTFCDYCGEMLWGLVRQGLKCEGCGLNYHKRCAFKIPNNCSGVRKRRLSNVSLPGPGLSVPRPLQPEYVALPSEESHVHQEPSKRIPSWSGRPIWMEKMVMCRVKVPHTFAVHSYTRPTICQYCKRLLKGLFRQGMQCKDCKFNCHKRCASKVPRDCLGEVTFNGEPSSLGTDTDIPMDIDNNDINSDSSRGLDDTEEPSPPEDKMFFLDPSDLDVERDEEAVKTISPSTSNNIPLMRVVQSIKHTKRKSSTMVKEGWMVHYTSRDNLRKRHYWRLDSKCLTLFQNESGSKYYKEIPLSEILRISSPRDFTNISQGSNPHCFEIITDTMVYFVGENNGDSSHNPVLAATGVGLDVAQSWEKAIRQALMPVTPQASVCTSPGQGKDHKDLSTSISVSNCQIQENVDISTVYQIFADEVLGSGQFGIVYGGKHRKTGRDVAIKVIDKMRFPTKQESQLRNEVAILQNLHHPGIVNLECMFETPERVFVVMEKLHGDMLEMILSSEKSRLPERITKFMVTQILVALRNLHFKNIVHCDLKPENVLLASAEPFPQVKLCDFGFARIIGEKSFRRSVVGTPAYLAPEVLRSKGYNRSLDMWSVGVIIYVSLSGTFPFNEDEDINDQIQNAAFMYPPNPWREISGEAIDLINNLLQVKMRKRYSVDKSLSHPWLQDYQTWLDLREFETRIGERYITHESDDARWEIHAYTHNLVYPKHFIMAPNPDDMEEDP

[3] = biological target: CSNK1D (Homo sapiens, UniProt P48730); experiment: KINOMEscan CSNK1D; assay type: binding; conditions: NEW KINOMEscan
CSNK1D, sequence (P48730 whole entry): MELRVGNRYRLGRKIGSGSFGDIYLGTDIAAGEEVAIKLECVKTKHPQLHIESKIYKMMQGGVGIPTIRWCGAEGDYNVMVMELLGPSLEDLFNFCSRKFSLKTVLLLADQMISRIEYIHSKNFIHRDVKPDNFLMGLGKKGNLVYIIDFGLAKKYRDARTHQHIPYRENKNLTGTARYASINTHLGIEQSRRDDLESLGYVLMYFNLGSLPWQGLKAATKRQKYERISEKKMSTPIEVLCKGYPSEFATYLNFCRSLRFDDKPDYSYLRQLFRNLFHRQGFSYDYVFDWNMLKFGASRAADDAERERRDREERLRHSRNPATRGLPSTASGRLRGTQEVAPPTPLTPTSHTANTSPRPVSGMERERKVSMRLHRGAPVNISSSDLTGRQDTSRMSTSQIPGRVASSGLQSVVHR

[4] = biological target: CDC42BPG/DMPK2 (Homo sapiens, UniProt Q6DT37); assay type: binding
CDC42BPG/DMPK2, sequence (Q6DT37 whole entry): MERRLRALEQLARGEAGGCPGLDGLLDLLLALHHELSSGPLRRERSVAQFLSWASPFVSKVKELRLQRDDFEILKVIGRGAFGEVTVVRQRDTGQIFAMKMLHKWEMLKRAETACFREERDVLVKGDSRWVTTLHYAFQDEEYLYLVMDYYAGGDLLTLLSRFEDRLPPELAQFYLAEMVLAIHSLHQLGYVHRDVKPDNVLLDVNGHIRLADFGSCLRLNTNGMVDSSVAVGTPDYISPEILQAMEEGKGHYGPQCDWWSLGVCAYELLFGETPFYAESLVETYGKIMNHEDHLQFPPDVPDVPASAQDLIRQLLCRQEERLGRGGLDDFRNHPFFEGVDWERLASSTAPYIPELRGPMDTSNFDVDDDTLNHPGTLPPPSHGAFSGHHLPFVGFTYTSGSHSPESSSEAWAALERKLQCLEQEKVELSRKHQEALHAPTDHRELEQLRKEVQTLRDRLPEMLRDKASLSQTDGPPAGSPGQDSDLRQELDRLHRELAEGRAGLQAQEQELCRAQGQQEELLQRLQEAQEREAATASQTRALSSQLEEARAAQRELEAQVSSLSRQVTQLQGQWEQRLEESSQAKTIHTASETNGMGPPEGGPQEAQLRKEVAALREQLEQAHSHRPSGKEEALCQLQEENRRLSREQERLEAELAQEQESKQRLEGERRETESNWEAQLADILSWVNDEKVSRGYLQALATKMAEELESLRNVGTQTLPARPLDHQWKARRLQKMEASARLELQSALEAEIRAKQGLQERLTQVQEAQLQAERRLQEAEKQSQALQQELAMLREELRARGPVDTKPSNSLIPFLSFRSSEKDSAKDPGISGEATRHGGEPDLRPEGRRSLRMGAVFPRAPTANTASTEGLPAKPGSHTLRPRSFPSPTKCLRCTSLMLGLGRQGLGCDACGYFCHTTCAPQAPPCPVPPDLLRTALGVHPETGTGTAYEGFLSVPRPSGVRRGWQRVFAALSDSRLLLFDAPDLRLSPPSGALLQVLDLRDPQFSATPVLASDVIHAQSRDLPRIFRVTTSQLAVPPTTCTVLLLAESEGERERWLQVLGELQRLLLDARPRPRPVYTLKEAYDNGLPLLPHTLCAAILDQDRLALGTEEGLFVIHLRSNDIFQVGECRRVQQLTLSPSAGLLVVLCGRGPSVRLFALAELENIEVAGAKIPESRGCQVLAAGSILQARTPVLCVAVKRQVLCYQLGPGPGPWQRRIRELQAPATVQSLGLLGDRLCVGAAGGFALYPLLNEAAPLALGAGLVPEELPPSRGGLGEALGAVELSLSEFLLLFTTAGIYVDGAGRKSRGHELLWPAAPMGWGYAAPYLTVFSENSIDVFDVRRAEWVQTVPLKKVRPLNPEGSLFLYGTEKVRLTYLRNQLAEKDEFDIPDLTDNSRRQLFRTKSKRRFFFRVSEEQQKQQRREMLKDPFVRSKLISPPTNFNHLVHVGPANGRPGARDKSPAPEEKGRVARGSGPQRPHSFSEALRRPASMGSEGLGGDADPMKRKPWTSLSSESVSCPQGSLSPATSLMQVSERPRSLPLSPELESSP

[5] = biological target: PIKFYVE (Homo sapiens, UniProt Q9Y2I7); experiment: KINOMEscan PIKFYVE; assay type: binding; conditions: kinase PIKFYVE; NEW KINOMEscan
[6] = biological target: CDC42BPB/MRCKB (Homo sapiens, UniProt Q9Y5S2); assay type: binding
CDC42BPB/MRCKB, sequence (Q9Y5S2 whole entry): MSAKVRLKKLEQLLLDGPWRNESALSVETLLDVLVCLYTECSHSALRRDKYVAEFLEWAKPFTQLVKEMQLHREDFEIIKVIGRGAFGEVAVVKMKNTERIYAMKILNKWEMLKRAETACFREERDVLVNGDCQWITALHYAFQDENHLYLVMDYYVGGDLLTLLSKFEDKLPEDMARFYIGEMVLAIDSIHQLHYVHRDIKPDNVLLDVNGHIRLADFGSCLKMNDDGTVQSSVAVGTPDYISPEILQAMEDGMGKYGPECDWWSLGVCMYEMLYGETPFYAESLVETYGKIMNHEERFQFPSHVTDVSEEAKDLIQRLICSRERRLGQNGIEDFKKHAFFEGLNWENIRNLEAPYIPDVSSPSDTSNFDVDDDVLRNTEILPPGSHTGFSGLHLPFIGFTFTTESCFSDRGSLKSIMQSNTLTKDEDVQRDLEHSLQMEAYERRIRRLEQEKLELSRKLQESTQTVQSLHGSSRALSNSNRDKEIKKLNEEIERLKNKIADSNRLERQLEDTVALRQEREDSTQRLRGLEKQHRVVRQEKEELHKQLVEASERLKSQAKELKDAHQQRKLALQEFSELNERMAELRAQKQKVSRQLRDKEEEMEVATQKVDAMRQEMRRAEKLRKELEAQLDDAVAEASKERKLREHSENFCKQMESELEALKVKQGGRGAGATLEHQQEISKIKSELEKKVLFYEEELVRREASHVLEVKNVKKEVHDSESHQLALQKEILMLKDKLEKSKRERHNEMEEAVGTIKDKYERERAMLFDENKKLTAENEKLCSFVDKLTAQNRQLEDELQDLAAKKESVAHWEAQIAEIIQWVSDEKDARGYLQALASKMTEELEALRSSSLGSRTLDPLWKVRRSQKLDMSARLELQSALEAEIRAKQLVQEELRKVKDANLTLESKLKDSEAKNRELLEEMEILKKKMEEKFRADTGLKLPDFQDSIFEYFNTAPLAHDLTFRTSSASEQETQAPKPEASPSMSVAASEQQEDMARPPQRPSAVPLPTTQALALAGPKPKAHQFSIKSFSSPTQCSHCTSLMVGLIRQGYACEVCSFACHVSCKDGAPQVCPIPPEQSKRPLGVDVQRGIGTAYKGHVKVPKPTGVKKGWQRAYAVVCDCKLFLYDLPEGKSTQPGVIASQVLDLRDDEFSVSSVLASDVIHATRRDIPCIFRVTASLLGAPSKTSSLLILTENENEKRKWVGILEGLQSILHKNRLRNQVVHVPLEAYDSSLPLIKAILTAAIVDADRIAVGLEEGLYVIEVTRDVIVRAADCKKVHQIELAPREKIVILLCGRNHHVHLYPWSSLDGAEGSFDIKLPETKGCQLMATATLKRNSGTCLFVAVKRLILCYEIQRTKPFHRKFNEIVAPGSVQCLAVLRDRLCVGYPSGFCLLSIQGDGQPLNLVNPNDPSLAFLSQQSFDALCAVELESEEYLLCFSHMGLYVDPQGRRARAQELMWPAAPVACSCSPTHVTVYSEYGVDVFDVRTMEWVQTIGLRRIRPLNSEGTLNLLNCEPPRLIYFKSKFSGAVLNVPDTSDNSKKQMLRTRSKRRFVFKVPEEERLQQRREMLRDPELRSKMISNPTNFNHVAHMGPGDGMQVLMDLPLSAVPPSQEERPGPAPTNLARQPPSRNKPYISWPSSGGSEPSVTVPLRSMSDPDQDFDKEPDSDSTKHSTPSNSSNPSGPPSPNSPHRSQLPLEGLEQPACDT

[7] = biological target: T2, PRKD2 (Homo sapiens, UniProt Q9BZL6); experiment: KINOMEscan PRKD2; assay type: binding; conditions: NEW KINOMEscan
T2 sequence (Q9BZL6 1-878): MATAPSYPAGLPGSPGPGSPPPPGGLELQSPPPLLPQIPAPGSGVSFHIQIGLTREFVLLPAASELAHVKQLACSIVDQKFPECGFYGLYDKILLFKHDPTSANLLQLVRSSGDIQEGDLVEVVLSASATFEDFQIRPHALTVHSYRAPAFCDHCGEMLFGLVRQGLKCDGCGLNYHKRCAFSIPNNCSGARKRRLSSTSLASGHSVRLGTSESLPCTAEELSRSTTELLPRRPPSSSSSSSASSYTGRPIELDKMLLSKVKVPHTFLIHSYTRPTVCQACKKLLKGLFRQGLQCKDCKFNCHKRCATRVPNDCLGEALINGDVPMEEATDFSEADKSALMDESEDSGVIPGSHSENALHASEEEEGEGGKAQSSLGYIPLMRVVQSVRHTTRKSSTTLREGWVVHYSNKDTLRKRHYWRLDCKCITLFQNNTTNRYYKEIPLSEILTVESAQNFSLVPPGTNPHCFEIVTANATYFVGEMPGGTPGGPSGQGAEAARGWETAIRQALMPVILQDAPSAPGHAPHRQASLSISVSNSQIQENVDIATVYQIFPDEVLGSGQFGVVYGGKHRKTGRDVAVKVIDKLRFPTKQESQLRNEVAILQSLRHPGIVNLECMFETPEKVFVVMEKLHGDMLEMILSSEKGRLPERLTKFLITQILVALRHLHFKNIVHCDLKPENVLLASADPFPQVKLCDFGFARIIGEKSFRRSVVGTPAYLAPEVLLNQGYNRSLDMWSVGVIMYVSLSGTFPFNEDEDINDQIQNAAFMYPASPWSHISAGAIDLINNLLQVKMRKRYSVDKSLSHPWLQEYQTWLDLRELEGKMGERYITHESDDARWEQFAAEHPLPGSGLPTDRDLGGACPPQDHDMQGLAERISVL

[8] = biological target: kinases (KINOMEscan panel) (Homo sapiens, UniProt P21802); set-up: method as in original PKIS2 published data; conditions: kinase FGFR2; Published KINOMEscan; ref original PKIS2 published data; cited from earlier work
[9] = biological target: kinases (KINOMEscan panel) (Homo sapiens, UniProt Q8N5S9); set-up: method as in original PKIS2 published data; conditions: CAMKK1; Published KINOMEscan; ref original PKIS2 published data; cited from earlier work
kinases (KINOMEscan panel) (Homo sapiens, UniProt Q8N5S9), sequence (Q8N5S9 whole entry): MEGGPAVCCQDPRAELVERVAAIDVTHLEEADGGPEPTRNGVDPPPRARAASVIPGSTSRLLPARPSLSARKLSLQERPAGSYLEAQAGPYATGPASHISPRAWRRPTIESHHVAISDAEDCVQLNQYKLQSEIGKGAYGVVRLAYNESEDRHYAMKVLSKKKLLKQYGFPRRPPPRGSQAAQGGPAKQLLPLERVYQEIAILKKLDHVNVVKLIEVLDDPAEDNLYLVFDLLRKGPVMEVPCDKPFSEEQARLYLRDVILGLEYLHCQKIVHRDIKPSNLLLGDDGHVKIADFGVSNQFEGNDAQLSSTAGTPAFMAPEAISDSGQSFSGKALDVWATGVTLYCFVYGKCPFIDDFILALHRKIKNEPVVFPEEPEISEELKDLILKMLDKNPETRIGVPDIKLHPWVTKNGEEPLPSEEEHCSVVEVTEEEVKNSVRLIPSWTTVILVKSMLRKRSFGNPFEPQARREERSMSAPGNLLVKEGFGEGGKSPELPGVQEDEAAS

[10] = biological target: kinases (KINOMEscan panel) (Homo sapiens, UniProt O43683); set-up: method as in original PKIS2 published data; conditions: kinase BUB1; Published KINOMEscan; ref original PKIS2 published data; cited from earlier work
[11] = biological target: kinases (KINOMEscan panel) (Homo sapiens, UniProt P17948); set-up: method as in original PKIS2 published data; conditions: kinase FLT1; Published KINOMEscan; ref original PKIS2 published data; cited from earlier work
[12] = biological target: kinases (KINOMEscan panel) (Homo sapiens, UniProt Q96J92); set-up: method as in original PKIS2 published data; conditions: WNK4; Published KINOMEscan; ref original PKIS2 published data; cited from earlier work
[13] = biological target: kinases (KINOMEscan panel) (Homo sapiens, UniProt P51957); set-up: method as in original PKIS2 published data; conditions: kinase NEK4; Published KINOMEscan; ref original PKIS2 published data; cited from earlier work
[14] = biological target: kinases (KINOMEscan panel) (Homo sapiens, UniProt Q9P1W9); set-up: method as in original PKIS2 published data; conditions: PIM2; Published KINOMEscan; ref original PKIS2 published data; cited from earlier work
kinases (KINOMEscan panel) (Homo sapiens, UniProt Q9P1W9), sequence (Q9P1W9 whole entry): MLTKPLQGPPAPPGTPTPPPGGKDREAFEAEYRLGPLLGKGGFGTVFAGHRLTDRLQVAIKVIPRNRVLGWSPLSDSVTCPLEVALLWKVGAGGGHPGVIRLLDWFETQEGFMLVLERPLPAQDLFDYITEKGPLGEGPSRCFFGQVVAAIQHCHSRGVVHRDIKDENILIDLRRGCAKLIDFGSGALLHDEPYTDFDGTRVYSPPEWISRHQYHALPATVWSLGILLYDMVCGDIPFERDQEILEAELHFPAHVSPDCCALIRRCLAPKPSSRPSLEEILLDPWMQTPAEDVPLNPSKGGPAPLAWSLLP

CSNK1E, sequence (P49674 whole entry): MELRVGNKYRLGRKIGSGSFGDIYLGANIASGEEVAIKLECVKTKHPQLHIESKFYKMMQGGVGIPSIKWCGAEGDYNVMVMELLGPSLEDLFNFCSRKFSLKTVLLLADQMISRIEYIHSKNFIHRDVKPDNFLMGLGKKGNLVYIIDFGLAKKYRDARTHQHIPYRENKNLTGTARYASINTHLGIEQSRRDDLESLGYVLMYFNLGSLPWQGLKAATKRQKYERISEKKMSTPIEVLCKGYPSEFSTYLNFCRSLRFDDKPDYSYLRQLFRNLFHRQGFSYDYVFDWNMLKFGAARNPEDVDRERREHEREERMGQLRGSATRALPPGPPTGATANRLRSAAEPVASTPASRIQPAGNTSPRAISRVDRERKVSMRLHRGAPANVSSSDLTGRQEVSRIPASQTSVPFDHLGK

| Compound | KINOMEscan CSNK1E [1] | KINOMEscan PRKD3 [2] | KINOMEscan CSNK1D [3] | KINOMEscan CDC42BPG/DMPK2 [4] | KINOMEscan PIKFYVE [5] | KINOMEscan CDC42BPB/MRCKB [6] | KINOMEscan PRKD2 [7] | KINOMEscan FGFR2 [8] | KINOMEscan CAMKK1 [9] | KINOMEscan BUB1 [10] | KINOMEscan FLT1 [11] | KINOMEscan WNK4 [12] | KINOMEscan NEK4 [13] | KINOMEscan PIM2 [14] |
| --- | --- | --- | --- | --- | --- | --- | --- | --- | --- | --- | --- | --- | --- | --- |
| Cc1cccc(-c2nc(Nc3ccc4nn(C)cc4c3)c3ccccc3n2)n1 [NK167] | 8 | 39 | 4 | 0 | 0 | 0 | 39 | – | – | – | – | – | – | – |
| Cc1cccc(-c2nc(Nc3ccncc3)c3ccccc3n2)n1 [NK215] | – | – | – | – | – | – | – | 7 | 24 | 0 | 0 | 0 | 0 | 18 |
| Cc1cccc(-c2nc(N(C)c3ccc4ncsc4c3)c3ccccc3n2)n1 [NK-161] | 7 | 74 | 11 | 21 | 16 | 5 | 63 | – | – | – | – | – | – | – |
